Experimental data from US20230295157A1, “3-(1H-IMIDAZOL-2-YL)-2,3,8,8A-TETRAHYDROINDOLIZIN-5(1H)-ONE DERIVATIVES USEFUL AS FACTOR XIA INHIBITORS” (JANSSEN PHARMACEUTICA NV, priority 2020, published 2023).
Where two headings read alike, the source gives them in different places.

Assays:
Factor XIa = Factor XIa (Homo sapiens (Human), UniProt P03951); assay: Factor XIa inhibition assay (FLINT) utilizing a fluorophore-quencher pair peptide substrate; format: biochemical; conditions: 30 min preincubation, kinetic reads over 30 min, read-out: FXIa Kin Inh IC50
Method in brief: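 FXIa ([…]) preincubated 30 min with compound (11-point 3-fold dilution, top 100 nM, 2% DMSO), then 15 μM quenched FXI Arg146-based peptide added; Tris pH 7.5, CaCl2, BSA, CHAPS. Fluorescence 485/520 nm read kinetically every 5 min over 30 min at RT; IC50 by 4-parameter fit.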

human plasma kallikrein = human plasma kallikrein (Homo sapiens (Human), UniProt P03952); assay: Kallikrein inhibition assay (FLINT) utilizing a quenched AMC peptide substrate; format: biochemical; conditions: 30 min preincubation, kinetic reads over 30 min, Z-Gly-Pro-Arg-AMC substrate 50 μM; read-out: Kallikrein Kin Inh IC50
Method in brief: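 Fluorogenic Z-Gly-Pro-Arg-AMC cleavage (50 μM substrate, 2 nM kallikrein, Tris pH 7.5, CaCl2, BSA, CHAPS, 2% DMSO) read kinetically at 340/440 nm for 30 min after 30-min compound pre-incubation. Compounds in 11-point 3-fold series from 1 μM; percent inhibition fitted to four-parameter equation for IC50.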

[1] = 5Fam-[…]-K5Tamra substrate 15 μM
[2] = 5Fam-KLTRAETV-K5Tamra substrate 15 μM

Chain of Factor XIa (P03951 388-625): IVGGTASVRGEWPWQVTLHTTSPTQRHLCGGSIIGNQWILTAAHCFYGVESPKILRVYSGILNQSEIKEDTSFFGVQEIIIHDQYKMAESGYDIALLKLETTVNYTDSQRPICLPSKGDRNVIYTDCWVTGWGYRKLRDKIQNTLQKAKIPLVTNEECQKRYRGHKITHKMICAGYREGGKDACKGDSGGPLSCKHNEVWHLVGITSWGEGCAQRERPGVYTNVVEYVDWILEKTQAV
Chain of Factor XIa (P03951 19-387 partner): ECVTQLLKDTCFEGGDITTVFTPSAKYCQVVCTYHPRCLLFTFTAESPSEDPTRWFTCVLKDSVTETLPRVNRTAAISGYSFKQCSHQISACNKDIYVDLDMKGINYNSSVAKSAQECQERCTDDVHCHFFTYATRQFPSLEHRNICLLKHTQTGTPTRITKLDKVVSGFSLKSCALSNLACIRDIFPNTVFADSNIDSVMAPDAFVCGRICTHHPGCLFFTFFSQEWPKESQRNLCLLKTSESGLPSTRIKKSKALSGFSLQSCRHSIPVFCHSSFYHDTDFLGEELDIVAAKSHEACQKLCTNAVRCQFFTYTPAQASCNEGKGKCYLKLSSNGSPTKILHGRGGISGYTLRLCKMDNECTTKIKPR
Chain of human plasma kallikrein (P03952 391-638): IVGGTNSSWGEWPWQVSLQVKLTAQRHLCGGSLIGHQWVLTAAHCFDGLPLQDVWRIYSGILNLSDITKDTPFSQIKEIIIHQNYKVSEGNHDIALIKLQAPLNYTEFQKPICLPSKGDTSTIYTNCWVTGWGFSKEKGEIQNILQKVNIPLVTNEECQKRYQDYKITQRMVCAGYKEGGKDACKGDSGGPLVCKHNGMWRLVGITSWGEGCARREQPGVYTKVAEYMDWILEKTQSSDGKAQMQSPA
Chain of human plasma kallikrein (P03952 20-390 partner): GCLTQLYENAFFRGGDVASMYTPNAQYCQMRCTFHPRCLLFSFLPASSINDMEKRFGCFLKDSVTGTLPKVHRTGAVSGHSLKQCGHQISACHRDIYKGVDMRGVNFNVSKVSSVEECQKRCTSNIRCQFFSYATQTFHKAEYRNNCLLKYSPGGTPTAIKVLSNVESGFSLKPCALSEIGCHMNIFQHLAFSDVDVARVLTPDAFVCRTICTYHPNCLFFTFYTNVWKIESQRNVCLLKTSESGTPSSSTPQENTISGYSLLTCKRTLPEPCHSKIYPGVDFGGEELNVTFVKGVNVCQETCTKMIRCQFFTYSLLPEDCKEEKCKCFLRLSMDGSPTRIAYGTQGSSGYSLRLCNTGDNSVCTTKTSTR

Compound	IC50 (Factor XIa; [1]) [nM]	IC50 (human plasma kallikrein) [nM]	IC50 (Factor XIa; [2]) [nM]
O=C1C=C(c2c(-n3cnnn3)ccc(Cl)c2F)C[C@H]2CC[C@H](c3ncc(-c4ccnc(-n5cnnc5)c4F)[nH]3)N12 (relative stereo) [Example 78, (3R*,8aR)-7-(3-chloro-2-fluoro-6-(1H-tetrazol-1-yl)phenyl)-3-(5-(3-fluoro-2-(4H-1,2,4-triazol-4-yl)pyridin-4-yl)-1H-imidazol-2-yl)-2,3,8,8a-tetrahydroindolizin-5(1H)-one]	40.9	136	
O=C1C=C(c2c(C(F)F)ccc(Cl)c2F)C[C@H]2CC[C@@H](c3nc(F)c(-c4ccnc(CO)c4F)[nH]3)N12 [Example 27, (3S,8aR)-7-(3-Chloro-6-(difluoromethyl)-2-fluorophenyl)-3-(4-fluoro-5-(3-fluoro-2-(hydroxymethyl)pyridin-4-yl)-1H-imidazol-2-yl)-2,3,8,8a-tetrahydroindolizin-5(1H)-one]		118	> 100
Cc1cc(C(=O)Nc2nccc(-c3cnc([C@@H]4CC[C@@H]5CC(c6c(-n7cnnn7)ccc(Cl)c6F)=CC(=O)N54)[nH]3)c2F)on1 [Example 5, N-[4-[2-[(3S,8aR)-7-[3-Chloro-2-fluoro-6-(tetrazol-1-yl)phenyl]-5-oxo-2,3,8,8a-tetrahydro-1H-indolizin-3-yl]-1H-imidazol-5-yl]-3-fluoro-2-pyridyl]-3-methyl-isoxazole-5-carboxamide]		48.8	4.2
O=C1C=C(c2c(-n3cnnn3)ccc(Cl)c2F)C[C@H]2CC[C@@H](c3ncc(-c4ccncc4F)[nH]3)N12 [Example 17, (3S,8aR)-7-[3-Chloro-2-fluoro-6-(tetrazol-1-yl)phenyl]-3-[5-(3-fluoro-4-pyridyl)-1H-imidazol-2-yl]-2,3,8,8a-tetrahydro-1H-indolizin-5-one]		29	3
CN(C)c1ccccc1-c1c[nH]c([C@@H]2CCC3CC(c4c(-n5cnnn5)ccc(Cl)c4F)=CC(=O)N32)n1 (stereo partly drawn) [Example 289, (3S)-7-(3-Chloro-2-fluoro-6-(1H-tetrazol-1-yl)phenyl)-3-(4-(2-(dimethylamino)phenyl)-1H-imidazol-2-yl)-2,3,8,8a-tetrahydroindolizin-5(1H)-one]	> 200	492	
O=C1CCCN1c1nccc(-c2cnc([C@@H]3CC[C@H]4CC(c5c(-n6cnnn6)ccc(Cl)c5F)=CC(=O)N43)[nH]2)c1F [Example 105, (3S,8aS)-7-(3-chloro-2-fluoro-6-(1H-tetrazol-1-yl)phenyl)-3-(5-(3-fluoro-2-(2-oxopyrrolidin-1-yl)pyridin-4-yl)-1H-imidazol-2-yl)-2,3,8,8a-tetrahydroindolizin-5(1H)-one]		125	62.9
CCOC(=O)NCc1nccc(-c2cnc([C@@H]3CC[C@@H]4CC(c5c(-n6cnnn6)ccc(Cl)c5F)=CC(=O)N43)[nH]2)c1F [Example 12, Ethyl-N-[[4-[2-[(3S,8aR)-7-[3-Chloro-2-fluoro-6-(tetrazol-1-yl)phenyl]-5-oxo-2,3,8,8a-tetrahydro-1H-indolizin-3-yl]-1H-imidazol-5-yl]-3-fluoro-2-pyridyl]methyl]carbamate]		35.5	2.7
N#CC1(c2nccc(-c3cnc([C@@H]4CC[C@@H]5CC(c6c(-n7cnnn7)ccc(Cl)c6F)=CC(=O)N54)[nH]3)c2F)COC1 (single isomer, unassigned) [Example 138, 3-(4-(2-((3S,8aR*)-7-(3-chloro-2-fluoro-6-(1H-tetrazol-1-yl)phenyl)-5-oxo-1,2,3,5,8,8a-hexahydroindolizin-3-yl)-1H-imidazol-5-yl)-3-fluoropyridin-2-yl)oxetane-3-carbonitrile]		138	32
CCOC(=O)Nc1ccncc1-c1c[nH]c([C@@H]2CC[C@H]3CC(c4c(-n5cnnn5)ccc(Cl)c4F)=CC(=O)N32)n1 [Example 268, Ethyl N-[3-[2-[(3S,8aS)-7-[3-chloro-2-fluoro-6-(tetrazol-1-yl)phenyl]-5-oxo-2,3,8,8a-tetrahydro-1H-indolizin-3-yl]-1H-imidazol-4-yl]-4-pyridyl]carbamate]		286	68.1
O=C(O)c1ccc(-c2cnc([C@@H]3CCC4CC(c5c(-n6cnnn6)ccc(Cl)c5F)=CC(=O)N43)[nH]2)cc1F (stereo partly drawn) [Example 342, 4-[2-[(3S)-7-[3-Chloro-2-fluoro-6-(tetrazol-1-yl)phenyl]-5-oxo-2,3,8,8a-tetrahydro-1H-indolizin-3-yl]-1H-imidazol-4-yl]-2-fluoro-benzoic acid]		405	22.6
NC(=O)c1ccc(-c2c[nH]c([C@@H]3CC[C@@H]4CC(c5c(-n6cc(C(F)(F)F)nn6)ccc(Cl)c5F)=CC(=O)N43)n2)s1 [Example 220, 5-(2-((3S,8aR)-7-(3-Chloro-2-fluoro-6-(4-(trifluoromethyl)-1H-1,2,3-triazol-1-yl)phenyl)-5-oxo-1,2,3,5,8,8a-hexahydroindolizin-3-yl)-1H imidazol-4-yl)thiophene-2-carboxamide]		9.7	5

The remaining compounds from weak to strong by IC50 (human plasma kallikrein), led by results:

IC50 (Factor XIa; [1]) [nM]	IC50 (human plasma kallikrein) [nM]	IC50 (Factor XIa; [2]) [nM]	Compound
	27.4	19.6	NC(=O)c1sc(-c2c[nH]c([C@@H]3CC[C@@H]4CC(c5c(-n6cnnn6)ccc(Cl)c5F)=CC(=O)N43)n2)cc1F [Example 216, 5-(2-((3S,8aR)-7-(3-Chloro-2-fluoro-6-(1H-tetrazol-1-yl)phenyl)-5-oxo-1,2,3,5,8,8a-hexahydroindolizin-3-yl)-1H-imidazol-4-yl)-3-fluorothiophene-2-carboxamide]
	20.7	9.3	NC(=O)c1ncc(-c2c[nH]c([C@@H]3CC[C@@H]4CC(c5c(-n6cc(C(F)(F)F)nn6)ccc(Cl)c5F)=CC(=O)N43)n2)s1 (single isomer, unassigned) [Example 210]
	16.8	2.2	O=C1C=C(c2c(-n3cnnn3)ccc(Cl)c2F)C[C@H]2CC[C@@H](c3ncc(-c4ccnc(CO)c4F)[nH]3)N12 (single isomer, unassigned) [Example 194, (3*S,8a*R)-7-(3-chloro-2-fluoro-6-(1H-tetrazol-1-yl)phenyl)-3-(4-(3-fluoro-2-(hydroxymethyl-d2)pyridin-4-yl)-1H-imidazol-2-yl)-2,3,8,8a-tetrahydroindolizin-5(1H)-one]
	16.6	4.3	C[C@@H](C#N)c1nccc(-c2cnc([C@@H]3CCC4CC(c5c(-n6cnnn6)ccc(Cl)c5F)=CC(=O)N43)[nH]2)c1F (relative stereo) [Example 164, (2*R)-2-(4-(2-((3S)-7-(3-chloro-2-fluoro-6-(1H-tetrazol-1-yl)phenyl)-5-oxo-1,2,3,5,8,8a-hexahydroindolizin-3-yl)-1H-imidazol-5-yl)-3-fluoropyridin-2-yl)propanenitrile]
	6.6	0.6	CS(=O)(=O)Nc1cc(-c2[nH]c(C3CCC4CC(c5c(-n6cnnn6)ccc(Cl)c5F)=CC(=O)N43)nc2F)ccn1 (stereo not drawn) [Example 6, N-[4-[2-[7-[3-Chloro-2-fluoro-6-(tetrazol-1-yl)phenyl]-5-oxo-2,3,8,8a-tetrahydro-1H-indolizin-3-yl]-4-fluoro-1H-imidazol-5-yl]-2-pyridyl]methanesulfonamide]
0.4	5.7		[2H]c1nc(C2CCC3CC(c4c(-n5cnnn5)ccc(Cl)c4F)=CC(=O)N32)[nH]c1-c1ccc(N)nc1F (stereo in doubt) [Example 154, (3S,8aR)-3-[5-(6-amino-2-fluoro-3-pyridyl)-4-deuterio-1H-imidazol-2-yl]-7-[3-chloro-2-fluoro-6-(tetrazol-1-yl)phenyl]-2,3,8,8a-tetrahydro-1H-indolizin-5-one]
	4.1	3.7	O=C1C=C(c2c(-n3cnnn3)ccc(Cl)c2F)C[C@@H]2CC[C@H](c3ncc(-c4ccnc(N5CCC[C@@H](O)C5)c4F)[nH]3)N12 (stereo in doubt) [Example 187, (3R,8aS)-7-(3-chloro-2-fluoro-6-(1H-tetrazol-1-yl)phenyl)-3-(5-(3-fluoro-2-((R)-3-hydroxypiperidin-1-yl)pyridin-4-yl)-1H-imidazol-2-yl)-2,3,8,8a-tetrahydroindolizin-5(1H)-one]
	1.3	0.4	CCNc1nccc(-c2cnc([C@@H]3CC[C@@H]4CC(c5c(-n6cnnn6)ccc(Cl)c5F)=CC(=O)N43)[nH]2)c1F [Example 390, (3S,8aR)-7-(3-chloro-2-fluoro-6-(1H-tetrazol-1-yl)phenyl)-3-(5-(2-(ethylamino)-3-fluoropyridin-4-yl)-1H-imidazol-2-yl)-2,3,8,8a-tetrahydroindolizin-5(1H)-one]
	1	0.3	O=C1Nc2ccc(-c3cnc([C@@H]4CCC5CC(c6c(-n7cnnn7)ccc(Cl)c6F)=CC(=O)N54)[nH]3)cc2CO1 (stereo partly drawn) [Example 297, 6-(2-((3S)-7-(3-Chloro-2-fluoro-6-(1H-tetrazol-1-yl)phenyl)-5-oxo-1,2,3,5,8,8a-hexahydroindolizin-3-yl)-1H-imidazol-5-yl)-1H-benzo[d][1,3]oxazin-2(4H)-one]
	0.4	0.2	O=C1C=C(c2c(-n3cnnn3)ccc(Cl)c2F)C[C@@H]2CC[C@@H](c3ncc(-c4ccc5[nH]c(=O)ccc5c4)[nH]3)N12 [Example 270, 6-[2-[(3S,8aS)-7-[3-Chloro-2-fluoro-6-(tetrazol-1-yl)phenyl]-5-oxo-2,3,8,8a-tetrahydro-1H-indolizin-3-yl]-1H-imidazol-5-yl]-1H-quinolin-2-one]
